Test results reported in patent US12195427B2, “MASP-2 inhibitors and methods of use” (priority 2018, dated 2025).

Target: MASP-2 CCP2-SP (Homo sapiens (Human), UniProt O00187)
Test: MASP-2 co-crystallization, X-ray crystallography and structure analysis (H-bonds, van der Waals contacts);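 as to Ligand-pharmacophore element distance, pharmacophore element C2: distance from averaged pharmacophore element to bound ligand; missing value means element absent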;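 as to Ligand-pharmacophore element distance, pharmacophore element C3: distance from averaged pharmacophore element to bound ligand; missing value means element absent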;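 as to Ligand-pharmacophore element distance, pharmacophore element C4: distance from averaged pharmacophore element to bound ligand; missing value means element absent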;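 as to Ligand-pharmacophore element distance, pharmacophore element C5: distance from averaged pharmacophore element to bound ligand; missing value means element absent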
Parameters: van der Waals contact distance, MASP-2 HIS 483 atom CD2 / van der Waals contact distance, MASP-2 HIS 483 atom NE2 / van der Waals contact distance, SER 654 C to compound atom / van der Waals contact distance, SER 654 O to compound atom / van der Waals contact distance, TRP 655 C to compound atom / van der Waals contact distance, MASP-2 GLY 528 atom CA / van der Waals contact distance TRP 655 atom CZ3 / van der Waals contact distance TRP 655 atom N / van der Waals contact distance TRP 655 atom CE3 / van der Waals contact distance GLY 656 atom C / van der Waals contact distance GLY 656 atom CA / van der Waals contact distance GLY 656 atom O / van der Waals contact distance, MASP-2 TYR 607 atom CD1 / van der Waals contact distance, MASP-2 PRO 606 atom O / d(C3,CA1) / d(CA1,N1)2 / d(H4,O1) / d(H4,O2) / d(O1,O2) / d(CA1,O2) / d(CA6,O1) / d(CA6,O2) / d(CA1,C5) / d(O2,H3) / d(N2,C2) / d(CA5,N2) / d(N2,C4) / d(N2,C6) / d(N2,CA3) / d(N2,O3) / d(O4,H2): unit not given beside the values
Conditions: for Ligand-pharmacophore element distance, pharmacophore element C2 / Ligand-pharmacophore element distance, pharmacophore element C3 / Ligand-pharmacophore element distance, pharmacophore element C4 / Ligand-pharmacophore element distance, pharmacophore element C5 / Ligand-pharmacophore element distance, pharmacophore element C6 / Ligand-pharmacophore element distance, pharmacophore element C7 / Ligand-pharmacophore element distance, pharmacophore element CA1 / Ligand-pharmacophore element distance, pharmacophore element CA2 / Ligand-pharmacophore element distance, pharmacophore element CA3 / Ligand-pharmacophore element distance, pharmacophore element CA4 / Ligand-pharmacophore element distance, pharmacophore element CA5 / Ligand-pharmacophore element distance, pharmacophore element CA6: Table A4-1; for d(C3,CA1) / d(CA1,N1)2 / d(CA1,O1) / d(CA1,O2) / d(H4,O1) / d(H4,O2) / d(O1,O2): Table A5-1 pharmacophore: distance between elements, S2/S1 region; for a(C3, CA1, O1) / a(CA1, O1, O2) / a(O1, O2, H4) / a(N1, CA1, O1) b): Table A6-1 pharmacophore angle; for a(N1, CA1, O1) b): Methyl-amino-pyridine compounds; for Pharmacophore torsion angle a(C3, CA1, O1, H4) / Pharmacophore torsion angle a(H4, O1, O2, H3) / Pharmacophore torsion angle a(H4, O1, O2, N2) / Pharmacophore torsion angle a(N1, CA1, O1, H4) / Pharmacophore torsion angle a(O1, H4, O2, CA1): Table A7-1
Outline: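 Human MASP-2 CCP2-SP (± 6His) expressed in E. coli and crystallized; crystals soaked in crystallization solution containing inhibitor, cryoprotected with 20% glycerol or frozen directly. Synchrotron data at 1.0 wavelength; molecular replacement from 1Q3X, partial refinement; one ligand pose analyzed; LigPlot+ contacts may include H-bonds.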

[1] = Table A5-2 pharmacophore distance, S3/S4 region
[2] = between pharmacophore elements of the bound compound
[3] = Table A7-2, between pharmacophore elements of the bound compound

MASP-2 CCP2-SP, sequence (O00187 445-686): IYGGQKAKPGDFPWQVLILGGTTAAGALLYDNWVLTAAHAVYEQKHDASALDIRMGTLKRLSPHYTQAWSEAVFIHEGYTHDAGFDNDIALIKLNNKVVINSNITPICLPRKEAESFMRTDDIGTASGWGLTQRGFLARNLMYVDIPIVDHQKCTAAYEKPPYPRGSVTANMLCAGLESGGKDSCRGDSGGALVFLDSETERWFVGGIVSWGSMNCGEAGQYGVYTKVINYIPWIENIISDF
MASP-2 CCP2-SP, sequence (O00187 364-432 partner): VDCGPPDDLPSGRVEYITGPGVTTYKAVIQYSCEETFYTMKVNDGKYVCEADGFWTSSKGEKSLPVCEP

Compound	Ligand-pharmacophore element distance, pharmacophore element C2	Ligand-pharmacophore element distance, pharmacophore element C3	Ligand-pharmacophore element distance, pharmacophore element C4	Ligand-pharmacophore element distance, pharmacophore element C5	Ligand-pharmacophore element distance, pharmacophore element C6	Ligand-pharmacophore element distance, pharmacophore element C7	Ligand-pharmacophore element distance, pharmacophore element CA1	Ligand-pharmacophore element distance, pharmacophore element CA2	Ligand-pharmacophore element distance, pharmacophore element CA3	Ligand-pharmacophore element distance, pharmacophore element CA4	Ligand-pharmacophore element distance, pharmacophore element CA5	Ligand-pharmacophore element distance, pharmacophore element CA6	d(CA1,O1)	d(CA1,O2)	d(H4,O1)	d(H4,O2)	d(O1,O2)	d(N2,CA2) [1]	d(O2,H3) [1]	d(O2,N2) [1]	also measured
Cc1nc(N)ccc1CNC(=O)[C@H](C)NC(=O)[C@H]1C[C@H](Cc2cccc(Cl)c2)CN1.Cl.Cl [1328_1]	0	0.4	0.76	0	0	0	0.49	0.5	0	0	0	0	4.24	3.54	4.21	3.54	3.13	5.88	4.20	2.79	d(C3,CA1): 2.85; d(CA1,N1)2: 1.37; d(N2,C4) [1]: 8.09; d(N2,C4)4 [1]: 8.09; a(C3, CA1, O1): 150.62; a(CA1, O1, O2): 101.20; a(O1, O2, H4): 133.34; a(N1, CA1, O1) b): 175.41; a(O1, O2, H3) (Table A6-2 pharmacophore angle): 150.01; a(O1, O2, N2) (Table A6-2 pharmacophore angle): 145.32; a(O2, N2, C4) (Table A6-2 pharmacophore angle): 161.66; a(O2, N2, C4) 2 (Table A6-2 pharmacophore angle): 114.03; a(O2, N2, CA2) (Table A6-2 pharmacophore angle): 155.25; Pharmacophore torsion angle a(C3, CA1, O1, H4) [2]: 30.10; Pharmacophore torsion angle a(H4, O1, O2, H3) [2]: 55.62; Pharmacophore torsion angle a(H4, O1, O2, N2) [2]: 136.65; Pharmacophore torsion angle a(N1, CA1, O1, H4) [2]: 20.31; Pharmacophore torsion angle a(O1, H4, O2, CA1) [2]: −88.07; Pharmacophore torsion angle a(O1, O2, N2, CA2) [3]: 126.19
Cc1nc(N)ccc1CNC(=O)[C@H](C)NC(=O)[C@H]1C[C@H](Cc2cccc(Cl)c2)CN1.Cl.Cl [1328_2]	0	0.15	1.28	0	0	0	0.41	0.43	0	0	0	0	4.43	4.01	4.38	3.84	3.08	5.92	4.54	2.75	d(C3,CA1): 2.85; d(CA1,N1)2: 1.38; d(N2,C4) [1]: 7.87; d(N2,C4)4 [1]: 7.87; a(C3, CA1, O1): 150.10; a(CA1, O1, O2): 103.89; a(O1, O2, H4): 136.71; a(N1, CA1, O1) b): 173.89; a(O1, O2, H3) (Table A6-2 pharmacophore angle): 149.68; a(O1, O2, N2) (Table A6-2 pharmacophore angle): 139.05; a(O2, N2, C4) (Table A6-2 pharmacophore angle): 160.74; a(O2, N2, C4) 2 (Table A6-2 pharmacophore angle): 109.44; a(O2, N2, CA2) (Table A6-2 pharmacophore angle): 154.85; Pharmacophore torsion angle a(C3, CA1, O1, H4) [2]: 21.76; Pharmacophore torsion angle a(H4, O1, O2, H3) [2]: 51.26; Pharmacophore torsion angle a(H4, O1, O2, N2) [2]: 134.72; Pharmacophore torsion angle a(N1, CA1, O1, H4) [2]: −4.36; Pharmacophore torsion angle a(O1, H4, O2, CA1) [2]: −83.32; Pharmacophore torsion angle a(O1, O2, N2, CA2) [3]: 132.29
Cc1nc(N)ccc1CNC(=O)[C@H](C)NC(=O)[C@H]1C[C@H](Cc2cccc(Cl)c2)CN1.Cl.Cl [1328_3]	0	0.21	1.76	0	0	0	0.4	0.48	0	0	0	0	4.82	3.89	3.99	2.55	3.40	6.00	4.77	2.77	d(C3,CA1): 2.85; d(CA1,N1)2: 1.38; d(N2,C4) [1]: 7.95; d(N2,C4)4 [1]: 7.95; a(C3, CA1, O1): 150.74; a(CA1, O1, O2): 97.62; a(O1, O2, H4): 122.23; a(N1, CA1, O1) b): 173.57; a(O1, O2, H3) (Table A6-2 pharmacophore angle): 151.35; a(O1, O2, N2) (Table A6-2 pharmacophore angle): 139.67; a(O2, N2, C4) (Table A6-2 pharmacophore angle): 160.41; a(O2, N2, C4) 2 (Table A6-2 pharmacophore angle): 106.08; a(O2, N2, CA2) (Table A6-2 pharmacophore angle): 154.95; Pharmacophore torsion angle a(C3, CA1, O1, H4) [2]: 57.52; Pharmacophore torsion angle a(H4, O1, O2, H3) [2]: 47.98; Pharmacophore torsion angle a(H4, O1, O2, N2) [2]: 130.71; Pharmacophore torsion angle a(N1, CA1, O1, H4) [2]: 39.33; Pharmacophore torsion angle a(O1, H4, O2, CA1) [2]: −87.28; Pharmacophore torsion angle a(O1, O2, N2, CA2) [3]: 131.79
Cc1nc(N)ccc1CNC(=O)[C@H](C)NC(=O)[C@H]1C[C@H](Cc2cccc(Cl)c2)CN1.Cl.Cl [1328_4]	0	0.18	1.86	0	0	0	0.5	0.3	0	0	0	0	5.05	3.83	4.21	2.53	3.71	6.17	4.71	2.79	d(C3,CA1): 2.85; d(CA1,N1)2: 1.37; d(N2,C4) [1]: 7.92; d(N2,C4)4 [1]: 7.92; a(C3, CA1, O1): 151.05; a(CA1, O1, O2): 96.00; a(O1, O2, H4): 119.12; a(N1, CA1, O1) b): 173.49; a(O1, O2, H3) (Table A6-2 pharmacophore angle): 150.66; a(O1, O2, N2) (Table A6-2 pharmacophore angle): 142.82; a(O2, N2, C4) (Table A6-2 pharmacophore angle): 160.57; a(O2, N2, C4) 2 (Table A6-2 pharmacophore angle): 109.36; a(O2, N2, CA2) (Table A6-2 pharmacophore angle): 156.25; Pharmacophore torsion angle a(C3, CA1, O1, H4) [2]: 66.00; Pharmacophore torsion angle a(H4, O1, O2, H3) [2]: 44.95; Pharmacophore torsion angle a(H4, O1, O2, N2) [2]: 135.08; Pharmacophore torsion angle a(N1, CA1, O1, H4) [2]: 58.16; Pharmacophore torsion angle a(O1, H4, O2, CA1) [2]: −91.48; Pharmacophore torsion angle a(O1, O2, N2, CA2) [3]: 128.70
CC(=O)Nc1ccc(CCNC(CCc2ccccc2)C(=O)NC(C)C(=O)NCc2ccc(C(=N)N)cc2)cc1.Cl.Cl (centres unmarked) [1345_1]	0	0	0	0	0	0	0.51	1.2	1.44	0	0	0	4.52	4.49	4.08	3.57	3.48	6.14	5.98	2.90	d(N2,CA3) [1]: 5.17; d(N2,O3) [1]: 8.75; a(CA1, O1, O2): 112.39; a(O1, O2, H4): 126.38; a(O1, O2, H3) (Table A6-2 pharmacophore angle): 149.79; a(O1, O2, N2) (Table A6-2 pharmacophore angle): 134.33; a(O2, N2, CA2) (Table A6-2 pharmacophore angle): 153.15; a(O2, N2, CA3) (Table A6-2 pharmacophore angle): 153.91; a(O2, N2, O3) (Table A6-2 pharmacophore angle): 163.54; Pharmacophore torsion angle a(H4, O1, O2, H3) [2]: 39.71; Pharmacophore torsion angle a(H4, O1, O2, N2) [2]: 114.36; Pharmacophore torsion angle a(O1, H4, O2, CA1) [2]: −62.84; Pharmacophore torsion angle a(O1, O2, N2, CA2) [3]: 138.94; Pharmacophore torsion angle a(O1, O2, N2, CA3) [3]: −27.29; Pharmacophore torsion angle a(O1, O2, N2, O3) [3]: −11.99
